From ChEMBL document CHEMBL1201862, “PubChem BioAssay data set” (2004) come the findings set out here.

Among the test systems are HOP-62; HCT-15; OVCAR-4; Hs-578T; IGROV-1; KM12; DU-145; UO-31; EKVX; K562; HCT-116; SW-620; HL-60; MDA-N; ACHN; SF-295; CCRF-CEM; NCI-H23; SNB-75.
Common to all, as to assay: NCI anticancer screen, dose series, 48 h

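Compound exposure: 48 hours, 5 concentrations, 96-well plates. GI50: concentration for 50% inhibition of growth.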 Calls of active or inactive are those of the source. No stated cut-off is given here; in the data, active = GI50 up to about 1.1 µM and inactive = higher. Where only a bound is given, the exact number is not on record here.

Consider `Cc1nnc(N)nc1/C=C/c1c(O)ccc2ccccc12`, for which the GI50 in the test with HOP-62 was 33.9 µM (inactive); with HCT-15, 17.3 µM; in the test with OVCAR-4, 20 µM (inactive); with Hs-578T it was 26.2 µM (inactive); in the test on IGROV-1, 13.7 µM (inactive); in the test on KM12, 34.5 µM (inactive). For the same compound, the GI50 in the test on DU-145 is 52.8 µM (inactive); in the test on UO-31 it was 18.8 µM (inactive); in the test on EKVX, 13.9 µM (inactive); with K562, 38.5 µM (inactive); in the test on HCT-116, 30.8 µM (inactive); in the test on SW-620, 31.6 µM (inactive). For the same compound, the GI50 was 28.2 µM (inactive) with HL-60; 28.9 µM (inactive) with MDA-N; 13.1 µM (inactive) in the test on ACHN; 18.6 µM (inactive) in the test with SF-295; 15.5 µM (inactive) in the test with CCRF-CEM; 24.8 µM (inactive) in the test on NCI-H23.

Take `COC(=O)c1c(C#N)[nH]c(-c2ccsc2)c1C(=O)OC`: the GI50 in the test on HOP-62 was > 100 µM (inactive); in the test with Hs-578T it was > 100 µM (inactive); with IGROV-1 it was > 100 µM (inactive); in the test with KM12, > 100 µM (inactive); in the test on DU-145 it was > 100 µM (inactive); with UO-31, 56.4 µM (inactive). In addition, the GI50 with EKVX was > 100 µM (inactive); in the test on K562, 78 µM (inactive); in the test on HCT-116 it was > 100 µM (inactive); with SW-620 it was > 100 µM (inactive); with MDA-N it was > 100 µM (inactive); with ACHN, > 100 µM (inactive). The GI50 in the test on SF-295, with SNB-75, in the test on CCRF-CEM and with NCI-H23 was > 100 µM (inactive) in each case.

For the compound `CC(C)(C)NCC(O)COc1cccc2[nH]c(C#N)cc12` (stereo not given) [CYANOPINDOLOL], the GI50 in the test on HOP-62 was > 100 µM (inactive); in the test with HCT-15, more than 100 µM; with OVCAR-4, > 100 µM (inactive); in the test with Hs-578T, > 100 µM (inactive); with IGROV-1, > 100 µM (inactive); in the test on KM12, > 100 µM (inactive). The GI50 with DU-145, in the test on UO-31, with EKVX, with HCT-116, with SW-620 and in the test on HL-60 was > 100 µM (inactive) throughout. The GI50 with MDA-N, in the test on ACHN, in the test with SF-295 and in the test with NCI-H23 was > 100 µM (inactive) throughout.

On to `OC12CC3c4ccccc4NC3C3Oc4cccc5c4C31CCN(CC1CC1)C2C5` (stereo not given), for which the GI50 with HOP-62 was 18.5 µM (inactive); with HCT-15 it was 17.9 µM; with OVCAR-4, 20.7 µM (inactive); in the test with Hs-578T, 23.9 µM (inactive); in the test with IGROV-1, 15.5 µM (inactive); with KM12 it was 18.8 µM (inactive). The GI50 in the test with DU-145 was 17.1 µM (inactive); with UO-31, 15.8 µM (inactive); in the test on EKVX, 16.7 µM (inactive); in the test on K562, 15.5 µM (inactive); in the test on HCT-116, 16.8 µM (inactive); in the test with SW-620 it was 11.8 µM (inactive). Moreover, the GI50 with MDA-N is 17.9 µM (inactive); in the test on ACHN it was 18.9 µM (inactive); in the test on SF-295 it was 30.9 µM (inactive); with SNB-75, 15.3 µM (inactive); with CCRF-CEM, 23.4 µM (inactive); with NCI-H23, 13 µM (inactive).

Consider `COc1ccc(C2OC(=O)c3c2ccc2ccccc32)c(C)c1` (stereo not given), for which the GI50 in the test with HOP-62 is 3.48 µM (inactive); with HCT-15, 1.93 µM; with Hs-578T it was 3.44 µM (inactive); in the test on IGROV-1 it was 4.79 µM (inactive); in the test on KM12, 2.38 µM (inactive); with UO-31, 5.4 µM (inactive). Also, the GI50 with EKVX was 6.07 µM (inactive); in the test with K562, 0.697 µM (active); in the test with HCT-116 it was 3.81 µM (inactive); with SW-620 it was 1.14 µM (inactive); in the test with HL-60 it was 2.33 µM (inactive); in the test on MDA-N, 0.499 µM (active). The GI50 with ACHN was 5.93 µM (inactive); in the test on SNB-75, 2.93 µM (inactive); in the test on NCI-H23, 5.41 µM (inactive).

For the compound `[O-][n+]1ccccc1Sc1nc(Sc2cccc[n+]2[O-])nc(Sc2cccc[n+]2[O-])n1`, the GI50 in the test with HOP-62 is 2.98 µM (inactive); with HCT-15, 1.38 µM; in the test with OVCAR-4, 1.59 µM (inactive); with Hs-578T, 2.08 µM (inactive); in the test on IGROV-1, 0.54 µM (active); in the test on KM12, 1.88 µM (inactive). In addition, the GI50 with DU-145 was 3.27 µM (inactive); with UO-31 it was 1.77 µM (inactive); in the test with EKVX, 2.34 µM (inactive); in the test with K562, 0.279 µM (active); in the test with HCT-116, 1.25 µM (inactive); in the test with SW-620, 0.248 µM (active). The GI50 was 0.1 µM (active) in the test with HL-60; 1.54 µM (inactive) in the test on ACHN; 3.14 µM (inactive) with SF-295; 4.2 µM (inactive) with SNB-75; 0.198 µM (active) in the test with CCRF-CEM; 1.36 µM (inactive) in the test on NCI-H23.

For the compound `COc1ccc(/C=C2\C[C@H]3[C@@H]4CC=C5C[C@@H](O)CC[C@]5(C)[C@H]4CC[C@]3(C)\C2=N\O)cc1`, the GI50 in the test on HOP-62 was 55.6 µM (inactive); in the test on HCT-15, 6 µM; in the test with OVCAR-4, 51.5 µM (inactive); in the test on Hs-578T, 10 µM (inactive); with IGROV-1 it was 38.2 µM (inactive); in the test on KM12 it was 16.8 µM (inactive). Moreover, the GI50 was 22.4 µM (inactive) in the test on DU-145; 14.3 µM (inactive) in the test on UO-31; 1.41 µM (inactive) in the test on EKVX; 4.85 µM (inactive) with K562; 5.35 µM (inactive) in the test on HCT-116; 26.7 µM (inactive) in the test on SW-620. The GI50 with HL-60 is 3.17 µM (inactive); in the test on MDA-N, 18.8 µM (inactive); in the test on ACHN, 19.5 µM (inactive); with SF-295, 6.98 µM (inactive); in the test with CCRF-CEM it was 4.58 µM (inactive); with NCI-H23 it was 16.9 µM (inactive).

Regarding `Cc1nc(C)c(C(=O)NNC(N)=S)cc1C(=O)NNC(N)=S`, the GI50 in the test on HOP-62 was > 100 µM (inactive); in the test with HCT-15 it was more than 100 µM; with OVCAR-4, > 100 µM (inactive); with Hs-578T, > 100 µM (inactive); in the test on IGROV-1, > 100 µM (inactive); with KM12, > 100 µM (inactive). The GI50 with DU-145, in the test with UO-31, with EKVX, in the test with K562, in the test on HCT-116 and in the test on SW-620 was > 100 µM (inactive) each time. The GI50 in the test on HL-60, in the test on MDA-N, in the test with ACHN, in the test with SF-295 and in the test with NCI-H23 was > 100 µM (inactive) each time.

As to `C[C@]12CC[C@H]3[C@@H](CC=C4C[C@@H](O)CC[C@@]43C)[C@@H]1CC[C@@H]2N(CCO)CCO`, the GI50 is 51.3 µM (inactive) in the test on HOP-62; 71.4 µM in the test on HCT-15; > 100 µM (inactive) in the test with OVCAR-4; 45.2 µM (inactive) in the test on Hs-578T; 50.7 µM (inactive) in the test on IGROV-1; 54.5 µM (inactive) in the test on KM12. Moreover, the GI50 was 36.6 µM (inactive) in the test with DU-145; 51.8 µM (inactive) in the test with UO-31; 19.4 µM (inactive) in the test with EKVX; 71.9 µM (inactive) in the test with K562; 26.9 µM (inactive) with HCT-116; 41.3 µM (inactive) with SW-620. In addition, the GI50 is 45.9 µM (inactive) in the test on MDA-N; 30.7 µM (inactive) with ACHN; 57.5 µM (inactive) with SF-295; 72.8 µM (inactive) in the test with SNB-75; 46.2 µM (inactive) in the test on CCRF-CEM; > 100 µM (inactive) in the test with NCI-H23.

Turning to `O=C1/C(=C\c2cccc(Oc3ccccc3)c2)S(=O)(=O)C(c2ccccc2)N1Cc1ccccc1` (stereo not given), the GI50 in the test with HOP-62 is 26.5 µM (inactive); in the test with HCT-15, 15.6 µM; with Hs-578T, 13.6 µM (inactive); with KM12, 23.1 µM (inactive); in the test with DU-145 it was 33 µM (inactive); in the test with UO-31, 18.7 µM (inactive). Further, the GI50 with EKVX is 25.8 µM (inactive); in the test on K562 it was 26 µM (inactive); in the test with HCT-116 it was 31 µM (inactive); in the test on SW-620 it was 40.4 µM (inactive); in the test on HL-60, 11.7 µM (inactive); in the test with MDA-N, 29.6 µM (inactive). The GI50 in the test with ACHN was 23 µM (inactive); in the test on SF-295, 55.8 µM (inactive); with CCRF-CEM, 24.5 µM (inactive); with NCI-H23 it was 28 µM (inactive).

With `C(=N\NC1=NCCCN1)/c1ccc(-c2cn3cc(/C=N/NC4=NCCCN4)ccc3n2)cc1`, the GI50 with HOP-62 is > 79.8 µM (inactive); in the test on HCT-15, more than 100 µM; in the test on OVCAR-4 it was > 100 µM (inactive); with IGROV-1 it was 50.6 µM (inactive); in the test with KM12 it was > 58.1 µM (inactive); with DU-145, 26.6 µM (inactive). For the same compound, the GI50 is > 100 µM (inactive) in the test with UO-31; 45.9 µM (inactive) with EKVX; 38.4 µM (inactive) in the test on K562; > 88.3 µM (inactive) in the test with HCT-116; > 100 µM (inactive) with SW-620; 20.7 µM (inactive) in the test with HL-60. Also, the GI50 is > 100 µM (inactive) in the test on MDA-N; 42 µM (inactive) in the test with ACHN; > 100 µM (inactive) in the test with SF-295; > 81.5 µM (inactive) in the test on SNB-75; > 41.9 µM (inactive) in the test with CCRF-CEM; > 100 µM (inactive) in the test with NCI-H23.

Consider `NC(=S)N/N=C1\CCc2ccccc2C1`, for which the GI50 in the test with HOP-62 is > 100 µM (inactive); with HCT-15 it was more than 100 µM; in the test on OVCAR-4 it was > 100 µM (inactive); with IGROV-1 it was > 100 µM (inactive); in the test with KM12 it was > 100 µM (inactive); in the test with DU-145, > 100 µM (inactive). Also, the GI50 with UO-31 was > 100 µM (inactive); in the test with EKVX it was 27 µM (inactive); in the test with K562, > 100 µM (inactive); in the test with HCT-116, > 100 µM (inactive); with SW-620, > 100 µM (inactive); in the test on HL-60, 34.7 µM (inactive). The GI50 was > 100 µM (inactive) with MDA-N; > 100 µM (inactive) with ACHN; > 100 µM (inactive) with SF-295; 70.8 µM (inactive) with CCRF-CEM; > 100 µM (inactive) with NCI-H23.
